Data published in patent publication US11332620B2, “Solution comprising a dye” (NOURYON CHEMICALS INTERNATIONAL B.V., priority 2018, dated 2022).

Assay: Dissolution of dye powder in CP/DMSO 80/20 mixture
Assay type: physicochemical
Conditions: stirred 24 hours at room temperature

Row | Dissolution in CP/DMSO 80/20 mixture (2.5 gram powder in 22.5 grams CP/DMSO 80/20, followed by 4 hours at 40° C.) | Dissolution in CP/DMSO 80/20 mixture (2.5 grams powder in 22.5 grams CP/DMSO 80/20) | SMILES
1 | completely dissolved |  | CCN(CCO)c1ccc(N=Nc2ccc([N+](=O)[O-])cc2)cc1 [Disperse Red 1, N-Ethyl-N-(2-hydroxyethyl)-4-(4-nitrophenylazo)aniline]
2 |  | completely dissolved | CC(=O)OCCN(CCC#N)c1ccc(N=Nc2nc3ccc([N+](=O)[O-])cc3s2)cc1 [Disperse Red 177, 2-((2-cyanoethyl)(4-((6-nitrobenzothiazol-2-yl)azo)phenyl)amino)ethyl acetate]
